Values joined by “and” are separate entries in the source; they are usually repeats but may differ in a detail not shown here. Equal values may be shown once. Read-outs that look alike come from different tables or passages of the source.

This data set has as its system rat cytochrome P450 3A.
The mark [1] stands for this setting: Table 2, 0.0001 wt. % component.
The mark [2] stands for this setting: Table 2, repeat 0.0001 wt. % (SD in parentheses).

`CC12CCC(CC1=O)C2(C)C` (racemic) [Camphor-(±), 1,7,7-Trimethylbicyclo [2.2.1] heptan-2-one]: for the setting “microsomes, pH 7.4”, the “% inhibition of cyclosporine metabolism, repeat” value (shortened to “% inhibition … repeat”) was 53 (3) %.

Take `C=CC(C)(O)CCC=C(C)C` (racemic) [Linalool-(±), 3,7-Dimethyl-1,6-octadien-3-ol]: the “% inhibition of cyclosporine metabolism” value came out at 41% under setting [1]; 72.0% (Table 2, 0.001 wt. % component); 85% (Table 2, 0.01 wt. % component). For the same molecule, the “% inhibition … repeat” value under setting [2] was -7 (9) % and -5 (2) %.

On to `CCC=CCC1C(=O)CCC1CC(=O)OC` (racemic) [Methyl Jasmonate-(±), Methyl-3-oxo-2-(2-pentenyl)-cyclopentane acetate], for which the “% inhibition of cyclosporine metabolism” value runs as follows: under setting [1], -27%; (Table 2, 0.001 wt. % component) 65%.

As to `C=C1C2CCC(C2)C1(C)C` (single isomer, unassigned) [Camphene-(+), 2,2-Dimethyl-3-methylenebicyclo[2.2.1]heptane], the “% inhibition of cyclosporine metabolism” value runs as follows: under setting [1], -49%; (Table 2, 0.001 wt. % component) 12.4%.

Turning to `C=C(C)C1CC=C(C)C(O)C1` (single isomer, unassigned) [Carveol-(-), p-Mentha-6,8-dien-2-ol], the “% inhibition of cyclosporine metabolism” value under setting [1] is 2% and the “% inhibition of cyclosporine metabolism” value (Table 2, 0.001 wt. % component) is 60%.

Turning to `CC=C(C)C=CC=C(C)C` [Allo Ocimene, 2,6-Dimethyl-2,4,6-octatriene], the “% inhibition of cyclosporine metabolism” value under setting [1] was found to be 6% and the “% inhibition of cyclosporine metabolism” value (Table 2, 0.001 wt. % component) came out at 22%.

As for `C/C=C/c1ccc(OC)cc1` [Anethole, trans-, 4-Propenylanisole], the “% inhibition of cyclosporine metabolism” value runs as follows: (Table 2, 0.001 wt. % component) 53%; (Table 2, 0.01 wt. % component) 100%.

Consider `O=C(/C=C/c1ccccc1)OCc1ccccc1` [Benzyl Cinnamate, Benzyl 3-phenylpropenoic acid], for which the “% inhibition of cyclosporine metabolism” value by setting is: under setting [1], 7%; (Table 2, 0.001 wt. % component) -45%.

With `COc1cc(CNC(=O)CCCC/C=C/C(C)C)ccc1O` [Capsaicin, trans-8-Methyl-N-vanillyl-6 nonenamide], the “% inhibition of cyclosporine metabolism” value under setting [1] amounted to 27% and the “% inhibition of cyclosporine metabolism” value (Table 2, 0.001 wt. % component) is on record as 68%.

For the molecule `CC1=CCC2C(C1)C2(C)C` (centres unmarked) [Carene-3-(Δ)], the “% inhibition of cyclosporine metabolism” value runs as follows: under setting [1], -26%; (Table 2, 0.001 wt. % component) 34%.

With `Cc1ccc(C(C)C)cc1O` [Carvacrol, 5-isoProply-2-methylphenol], the “% inhibition of cyclosporine metabolism” value is given as 11% under setting [1]; 93% (Table 2, 0.001 wt. % component); 97% (Table 2, 0.01 wt. % component).

With `C=C(C)[C@@H]1CC=C(C)C(=O)C1` [Carvone-(R)-(-), p-Mentha-6,8-dien-2-one], the “% inhibition of cyclosporine metabolism” value is, setting by setting: under setting [1], 27%; (Table 2, 0.001 wt. % component) 69%; (Table 2, 0.01 wt. % component) 100%.

With `C=C(C)[C@H]1CC=C(C)C(=O)C1` [Carvone-(S)-(+), p-Mentha-6,8-dien-2-one], the “% inhibition of cyclosporine metabolism” value reads like this: under setting [1], 30%; (Table 2, 0.001 wt. % component) 70.5%.

As to `C=C1CC/C=C(\C)CC[C@@H]2[C@@H]1CC2(C)C` [Caryophyllene, trans-(-), β Caryophyllene], the “% inhibition of cyclosporine metabolism” value was 26% under setting [1] and 85% (Table 2, 0.001 wt. % component).

Turning to `O=C/C=C/c1ccccc1` [Cinnamic Aldehyde, trans-, 3-Phenylpropenaldehyde], the “% inhibition of cyclosporine metabolism” value runs as follows: (Table 2, 0.001 wt. % component) 29.0%; (Table 2, 0.01 wt. % component) 78%.

With `CC(C)=CCC/C(C)=C/C=O` [Citral], the “% inhibition of cyclosporine metabolism” value by setting is: under setting [1], 44%; (Table 2, 0.001 wt. % component) 54%; (Table 2, 0.01 wt. % component) 99%.

With `CC(C)=CCCC(C)CCO` (stereo not drawn) [Citronellol-(DL)-(β), 3,7-Dimethyl-6-octen-1-ol], the “% inhibition of cyclosporine metabolism” value by setting is: under setting [1], 41%; (Table 2, 0.001 wt. % component) 86%; (Table 2, 0.01 wt. % component) 95%. Under setting [2], the “% inhibition … repeat” value is 35 (4) %.

With `C=CCc1ccc(OC)cc1` [Estragole, 4-Allylanisole], the “% inhibition of cyclosporine metabolism” value is, setting by setting: under setting [1], 7%; (Table 2, 0.001 wt. % component) 69.2%; (Table 2, 0.01 wt. % component) 100%.

For `CCOC(=O)/C=C/c1ccccc1` [Ethyl Cinnamate, trans-, Ethyl 3-phenylpropenoic acid], the “% inhibition of cyclosporine metabolism” value by setting is: under setting [1], -13%; (Table 2, 0.001 wt. % component) -16%.

In the case of `CCOc1cc(C=O)ccc1O` [Ethyl Vanillin, 3-Ethoxy-4-hydroxybenzalehyde], the “% inhibition of cyclosporine metabolism” value (Table 2, 0.01 wt. % component) was found to be 58%.

With `C=CCc1ccc(O)c(OC)c1` [Eugenol, 4-Allyl-2-methoxyphenol], the “% inhibition of cyclosporine metabolism” value stood at 9.8% under setting [1]; 66% (Table 2, 0.001 wt. % component); 100% (Table 2, 0.01 wt. % component).

As for `CC(C)=CCC/C(C)=C/CC/C(C)=C/CO` [Farnesol, trans-, trans-, 3,7,11-Trimethyl-2,6,10-dodecatrien-1-ol], the “% inhibition of cyclosporine metabolism” value reads like this: under setting [1], 49%; (Table 2, 0.001 wt. % component) 82%.

Turning to `CC1(C)[C@H]2CC[C@](C)(C2)[C@H]1O` [Fenchol-(1R)-endo-(+), 1,3,3-Trimethylbicyclo [2.2.1] heptan-2-ol], the “% inhibition of cyclosporine metabolism” value turned out to be 18% under setting [1]; 74% (Table 2, 0.001 wt. % component); 100% (Table 2, 0.01 wt. % component).

As for `CC1(C)C(=O)[C@]2(C)CC[C@H]1C2` [Fenchone-(1R)-(-), 1,3,3-Trimethylbicyclo [2.2.1] heptan-2-one], the “% inhibition of cyclosporine metabolism” value runs as follows: under setting [1], 14%; (Table 2, 0.001 wt. % component) 38%.

On to `CC(=O)OC/C=C(\C)CCC=C(C)C` [Geranyl Acetate, trans-3,7-Dimethyl-2,6-octadien-1-yl acetate], for which the “% inhibition of cyclosporine metabolism” value stood at 51.5% (Table 2, 0.001 wt. % component) and 73% (Table 2, 0.01 wt. % component).

As to `CC/C=C\CC1=C(C)CCC1=O` [Jasmone, cis-, 3-Methyl-2-(2-pentenyl)-2-cyclopenten-1-one], the “% inhibition of cyclosporine metabolism” value runs as follows: under setting [1], 16.0%; (Table 2, 0.001 wt. % component) 68%.

For `CC(=O)N1CCN(c2ccc(OCC3COC(Cn4ccnc4)(c4ccc(Cl)cc4Cl)O3)cc2)CC1` (centres unmarked) [Ketoconazole, reference compound], the “% inhibition of cyclosporine metabolism” value runs as follows: (Table 3, 0.000001%) 8%; (Table 3, 0.000005%) 20%; (Table 3, 0.00001%) 42%; (Table 3, 0.00005%) 100%.

In the case of `C=C(C)[C@H]1CC=C(C)CC1` [Limonene-(R)-(+), p-Mentha-1,8-diene], the “% inhibition of cyclosporine metabolism” value is, setting by setting: (Table 2, 0.001 wt. % component) 20%; (Table 2, 0.01 wt. % component) 84%.

`C=C(C)[C@@H]1CC=C(C)CC1` [Limonene-(S)-(-), p-Mentha-1,8-diene]: the “% inhibition of cyclosporine metabolism” value amounted to 30% (Table 2, 0.001 wt. % component) and 82.3% (Table 2, 0.01 wt. % component).

Take `C=CC(C)(CCC=C(C)C)OC(C)=O` (centres unmarked) [Linalyl Acetate, 3,7-Dimethyl-1,6-octadien-3-yl acetate]: the “% inhibition of cyclosporine metabolism” value is, setting by setting: (Table 2, 0.001 wt. % component) 55.8%; (Table 2, 0.01 wt. % component) 100%.

As for `CC(C)[C@@H]1CC[C@@H](C)CC1=O` [Menthone-(-), p-Menthan-3-one], the “% inhibition of cyclosporine metabolism” value reads like this: under setting [1], 14%; (Table 2, 0.001 wt. % component) 52%.

As to `COC(=O)c1ccccc1N` [Methyl Anthranilate, Methyl 2-aminobenzoate], the “% inhibition of cyclosporine metabolism” value is, setting by setting: under setting [1], -7%; (Table 2, 0.001 wt. % component) 23%.

As to `C=CC(=C)CCC=C(C)C` [Myrcene-β, 7-Methyl-3-methylene-1,6-octadiene], the “% inhibition of cyclosporine metabolism” value by setting is: under setting [1], 0%; (Table 2, 0.001 wt. % component) 13%.

In the case of `C=C1CC[C@H]2C[C@@H]1C2(C)C` [Pinene-(1S)-(-)-β, 6,6-Dimethyl-2-methylenebicyclo[3.1.1]heptane], the “% inhibition of cyclosporine metabolism” value under setting [1] is -10%; the “% inhibition of cyclosporine metabolism” value (Table 2, 0.001 wt. % component) amounted to 60%; the “% inhibition of cyclosporine metabolism” value (Table 2, 0.01 wt. % component) was 88%.

Turning to `CC(C)=C1CC[C@@H](C)CC1=O` [Pulegone-(R)-(+), p-Menth-4(8)-en-3-one], the “% inhibition of cyclosporine metabolism” value reads like this: under setting [1], -17%; (Table 2, 0.001 wt. % component) 31%.

Turning to `CC1=CCC(O)(C(C)C)CC1` (centres unmarked) [Terpinen-4-ol, p-Menth-1-en-4-ol], the “% inhibition of cyclosporine metabolism” value by setting is: under setting [1], 3.81%; (Table 2, 0.001 wt. % component) 80%; (Table 2, 0.01 wt. % component) 100%.

Turning to `CC1=CC=C(C(C)C)CC1` [Terpinene-α, p-Mentha-1,3-diene], the “% inhibition of cyclosporine metabolism” value is, setting by setting: under setting [1], -6%; (Table 2, 0.001 wt. % component) 28%.

Regarding `CC1=CCC(C(C)(C)O)CC1` (stereo not drawn) [Terpineol-α, p-Menth-1-en-8-ol], the “% inhibition of cyclosporine metabolism” value under setting [1] was determined as 13.4%; the “% inhibition of cyclosporine metabolism” value (Table 2, 0.001 wt. % component) was 86%; the “% inhibition of cyclosporine metabolism” value (Table 2, 0.01 wt. % component) is listed as 100%.

Values taken from US5665386A, “Use of essential oils to increase bioavailability of oral pharmaceutical compounds” (priority 1995, dated 1997).
